Earlier results, collected in US20060030547A1, “Antineoplastic combinations” (Wyeth, priority 2001, published 2006).

How the values were obtained:
[1] = test system: histologically diverse tumor cells; details: in vitro, background statement
[2] = test system: orthotopic glioma; details: nude mice, background statement
[3] = test system: human glioblastoma cell line; details: in vitro, background statement

SMILES: CO[C@H]1C[C@@H]2CC[C@@H](C)[C@@](O)(O2)C(=O)C(=O)N2CCCC[C@H]2C(=O)O[C@H]([C@H](C)C[C@@H]2CC[C@@H](OC(=O)C(C)(CO)CO)[C@H](OC)C2)CC(=O)[C@H](C)/C=C(\C)[C@@H](O)[C@@H](OC)C(=O)[C@H](C)C[C@H](C)/C=C/C=C/C=C/1C [CCI-779, Rapamycin 42-ester with 3-hydroxy-2-(hydroxymethyl)-2-methylpropionic acid]
- cell cycle effect [1]: arrested cells in the G1 phase of the cell cycle
- activity in orthotopic glioma model [2]: active
- suppression of growth factor (platelet-derived)-induced stimulation [3]: markedly suppressed
